Experimental data from patent publication US8163777B2, “Benzimidazolyl-pyridine compounds for inflammation and immune-related uses” (Synta Pharmaceuticals Corp., priority 2006, dated 2012).

Tested on: IL-2, IL-4, IL-5, IL-13, GM-CSF, INF-γ and TNF-α
Assay: Inhibition of multiple cytokines in primary human PBMCs (summary statement)
Assay type: cell-based
Settings: PHA-stimulated PBMCs
Protocol: Cytokine production was measured using commercially available human ELISA assay kits (from Cell Science, Inc.) following the manufacturers instructions.

## COc1ccc2c(c1)nc(C(F)(F)F)n2-c1ccc(NC(=O)c2ccc3c(c2)OCO3)cc1 [Compound 75, Benzo[1,3]dioxole-5-carboxylic acid {N-[4-(2-trifluoromethyl-5-methoxy-benzoimidazol-1-yl)-phenyl]} amide]
  inhibition of IL-2, IL-4, IL-5, IL-13, GM-CSF, INF-γ and TNF-α (in words): potent inhibitors
